Read-outs that look alike come from different tables or passages of the source.
Key:
[1] = cited from earlier work
[2] = rodents; cited from earlier work
[3] = in vivo; cited from earlier work
[4] = Release of DexP from PLGA-PEG-PLGA hydrogels; assay type: physicochemical
Experimental: The biodegradable PLGA-PEG-PLGA triblock polymer used in this example has a PLG/PEG weight ratio of 2.3 (70/30), and a lactide/glycolide molar ratio of approx. 15/1. Synthesis of the triblock copolymer is performed as described in Example 2.1. A 20 mM stock solution of DexP in PBS (10.3 mg/ml; MW 516.4; Sigma-Aldrich) is diluted 1:40 in PBS (final concentration: 0.5 mM), and 20 μl of the diluted stock solution is combined with 160 μl of 25% gel solution and 20 μl of 10×PBS (final concentration of DexP: 0.05 mM).
The mixture of 5.2.1 is incubated for 2 minutes at 37° C. to induce gelling and overlayed with 200 μl of 1×PBS. At frequent time points the supernatant is removed by pipetting and stored at 4° C. The removed supernatant is replaced by fresh 200 μl of 1×PBS. Controls of the same concentration of DexP in 1×PBS without gel are incubated and sampled in parallel.
Released DexP is determined with a spectrophotometric method (Singh and Verma, 2008). The method involves oxidation of the corticosteroid by iron (III) and subsequent complexation of iron (II) with potassium hexacynoferate (III), forming a bluish green coloured complex with maximum absorbance at 780 nm (Beer's law range: 10-50 μg/ml; molar absorptivity (M^−1cm^−1): for DexP 0.55×10^4).

[5] = cited from earlier work; remark: listed apart in the source
phagocytes = settings: cited from earlier work; for maximal migration of phagocytes (increase): at about 100 nM; for concentration effecting maximal migration of phagocytes: transwell migration assay
[6] = rats; cited from earlier work
[7] = cited from earlier work; remark: listed apart in the source
[8] = cited from earlier work; remark: listed apart in the source
calcium metabolism = settings: compared to 1,25-(OH)2D3; cited from earlier work
type 1 diabetes = settings: cited from earlier work
P2Y2 = P2Y2 (Homo sapiens, UniProt P41231); settings: read-out: EC50 for activation of P2Y2; cited from earlier work
P2Y2, sequence (P41231 whole entry, species assumed): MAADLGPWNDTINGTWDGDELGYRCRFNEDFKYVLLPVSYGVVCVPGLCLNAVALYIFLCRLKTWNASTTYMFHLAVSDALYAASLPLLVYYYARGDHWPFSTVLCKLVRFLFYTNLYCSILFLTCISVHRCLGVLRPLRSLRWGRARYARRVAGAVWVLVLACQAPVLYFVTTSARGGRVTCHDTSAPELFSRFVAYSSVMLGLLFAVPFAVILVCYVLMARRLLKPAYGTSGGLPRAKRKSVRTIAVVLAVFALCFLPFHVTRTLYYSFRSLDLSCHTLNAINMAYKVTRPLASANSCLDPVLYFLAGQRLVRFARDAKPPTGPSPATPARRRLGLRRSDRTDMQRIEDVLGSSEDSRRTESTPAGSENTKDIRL

P2X7 = target: T1, P2X7 (Homo sapiens, UniProt Q99572); settings: read-out: EC50 for activation of P2X7; cited from earlier work
T1 sequence (Q99572 1-595): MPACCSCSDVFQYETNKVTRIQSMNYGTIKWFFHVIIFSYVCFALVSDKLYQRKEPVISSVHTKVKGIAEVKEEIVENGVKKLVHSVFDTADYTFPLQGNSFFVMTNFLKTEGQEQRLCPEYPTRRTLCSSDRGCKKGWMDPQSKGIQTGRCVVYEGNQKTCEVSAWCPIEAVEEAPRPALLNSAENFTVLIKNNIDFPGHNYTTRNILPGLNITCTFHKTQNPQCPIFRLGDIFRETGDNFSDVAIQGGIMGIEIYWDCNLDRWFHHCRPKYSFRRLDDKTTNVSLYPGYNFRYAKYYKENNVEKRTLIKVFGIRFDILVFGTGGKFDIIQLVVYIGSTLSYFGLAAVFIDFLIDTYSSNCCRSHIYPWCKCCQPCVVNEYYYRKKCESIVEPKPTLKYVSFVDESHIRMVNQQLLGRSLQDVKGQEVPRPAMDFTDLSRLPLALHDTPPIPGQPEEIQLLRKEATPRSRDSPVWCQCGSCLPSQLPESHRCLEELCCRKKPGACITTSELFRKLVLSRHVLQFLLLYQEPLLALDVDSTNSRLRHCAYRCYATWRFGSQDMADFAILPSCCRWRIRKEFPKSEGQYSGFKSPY

[9] = In vitro release of ATP from PLGA-PEG-PLGA hydrogels; assay type: physicochemical
Experimental: An aliquot of 20 μl of a 10 mM solution of ATP is combined with 160 μl of 25% gel solution of Example 4.1 and 20 μl of 10×PBS (final concentration of ATP is 1 mM). The mixture is incubated for 2 minutes at 37° C. to induce gelling and overlayed with 1 ml of 1×PBS. At frequent timepoints the supernatant is removed by pipetting and stored at 4° C. The removed supernatant is replaced by fresh 1 ml of 1×PBS. After 48 hours the samples are measured spectrometrically at 260 nm and the amount of released ATP is calculated as percentage of a reference sample containing a concentration of ATP equaling 100% release.

leukocyte infiltration = settings: 100 ng dose; cited from earlier work
[10] = tested on: human polymorphonuclear leukocyte (PMN) trans-endothelial migration; settings: equipotent to resolvin D1; read-out: EC50 of reduction of PMN trans-endothelial migration; cited from earlier work
[11] = tested on: TNFR1-mediated activation of NF-κB; settings: high concentrations; cited from earlier work
murine CD22 = target: T2, murine CD22 (Mus musculus, UniProt P35329); settings: cited from earlier work
T2 sequence (P35329 22-868): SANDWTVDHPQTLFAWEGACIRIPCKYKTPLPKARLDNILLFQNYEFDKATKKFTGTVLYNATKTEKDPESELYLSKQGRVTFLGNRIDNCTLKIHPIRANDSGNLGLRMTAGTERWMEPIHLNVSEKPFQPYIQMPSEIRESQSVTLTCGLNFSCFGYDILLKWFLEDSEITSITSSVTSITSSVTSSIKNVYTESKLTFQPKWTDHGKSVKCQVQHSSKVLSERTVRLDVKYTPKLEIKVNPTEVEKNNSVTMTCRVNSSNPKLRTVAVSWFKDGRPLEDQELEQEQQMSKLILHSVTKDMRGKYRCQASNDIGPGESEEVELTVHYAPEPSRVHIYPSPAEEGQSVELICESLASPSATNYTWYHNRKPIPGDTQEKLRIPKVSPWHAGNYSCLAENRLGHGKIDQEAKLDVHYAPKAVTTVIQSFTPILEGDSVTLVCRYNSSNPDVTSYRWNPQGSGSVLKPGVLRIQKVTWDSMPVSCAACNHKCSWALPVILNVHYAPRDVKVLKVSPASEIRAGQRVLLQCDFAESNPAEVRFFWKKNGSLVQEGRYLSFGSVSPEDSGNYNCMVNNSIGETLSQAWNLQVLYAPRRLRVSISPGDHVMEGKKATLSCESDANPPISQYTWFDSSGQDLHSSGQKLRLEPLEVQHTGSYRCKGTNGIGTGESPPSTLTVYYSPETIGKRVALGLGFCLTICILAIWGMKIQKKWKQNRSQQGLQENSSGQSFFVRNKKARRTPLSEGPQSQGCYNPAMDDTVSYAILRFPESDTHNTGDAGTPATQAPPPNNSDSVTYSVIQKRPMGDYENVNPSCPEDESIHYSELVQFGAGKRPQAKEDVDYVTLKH

[12] = cited from earlier work; remark: listed apart in the source
rheumatoid arthritis = settings: 2 μg/day for 3 months, cited from earlier work

C=C1CC[C@H](O)C/C1=C/C=C1\CCC[C@]2(C)[C@@H]([C@H](C)CCCC(C)(C)O)CC[C@@H]12 [calcidiol, 25-hydroxyvitamin D3]
plasma calcidiol concentration producing vitamin D toxicity ([1]; Jones (2008)): above 0.75 μM | calcidiol level at which toxicity occurs ([1]; Shephard and DeLuca (1980)): ≥ 500 ng/mL | plasma calcidiol concentration tolerated with normocalcemia [2]: 250 to 1000 nM

C[C@]12C=CC(=O)C=C1CC[C@H]1[C@@H]3C[C@@H](O)[C@](O)(C(=O)CO)[C@@]3(C)C[C@H](O)[C@@]12F [triamcinolone]
glucocorticoid potency (in words) [3]: intermediate potency

C[C@@H]1C[C@H]2[C@@H]3CCC4=CC(=O)C=C[C@]4(C)[C@@]3(F)[C@@H](O)C[C@]2(C)[C@@]1(O)C(=O)COP(=O)(O)O [DexP, dexamethasone sodium phosphate]
hydrogel-embedded DexP released ([4]; after 2 days): 80-90% | hydrogel-embedded DexP released ([4]; within the first 6 hours): 30-50% | solubility in PBS ([5]; PBS): at least 25 mg/ml | solubility in 10 mM HEPES and 135 mM NaCl, pH 6.7 ([5]; pH 6.7): at least 50 mg/ml | solubility in water ([5]; water, product information): 50 mg/mL

O=c1ccn([C@@H]2O[C@H](COP(=O)(O)OP(=O)(O)OP(=O)(O)O)[C@@H](O)[C@H]2O)c(=O)[nH]1 [UTP]
maximal migration of phagocytes (increase) (phagocytes): threefold increase | concentration effecting maximal migration of phagocytes (phagocytes): about 100 nM

C=C1/C(=C\C=C2/CCC[C@]3(C)[C@@H]([C@H](C)/C=C/[C@@H](O)C4CC4)CC[C@@H]23)C[C@@H](O)C[C@@H]1O [calcipotriol]
single s.c. dose up to which no death occurred [6]: ≤ 540 μg/kg body weight | rate of clearance, times higher than for 1,25-(OH)2D3 ([7]; compared to 1,25-(OH)2D3 / calcitriol): approximately 140 times | detectable in serum by HPLC up to ([7]; i.v. injection of 10 μg/kg in rats): up to 5 min | detectable in serum by HPLC up to ([7]; i.v. injection of 50 μg/kg in rats): up to 10 min | applied dose absorbed systemically ([8]; applied to normal skin): 5% | applied dose absorbed systemically ([8]; ointment applied topically to psoriasis plaques): approximately 6% | effect on calcium metabolism, times less than 1,25-(OH)2D3 (calcitriol) (calcium metabolism): 100-200 times

vitamin D
relative risk of type 1 diabetes (type 1 diabetes; doses of exactly 50 μg/day): 0.22 | relative risk of type 1 diabetes (type 1 diabetes; doses of over 50 μg/day (2000 IU/d) during infancy, subsequent 30 years): 0.14 | odds ratio of risk for T1D by age 15 (type 1 diabetes; supplemented vs unsupplemented children): 0.67

Nc1ncnc2c1ncn2[C@@H]1O[C@H](COP(=O)(O)OP(=O)(O)OP(=O)(O)O)[C@@H](O)[C@H]1O [ATP]
EC50 (P2Y2): < 1 µM | maximal migration of phagocytes (increase) (phagocytes): threefold increase | concentration effecting maximal migration of phagocytes (phagocytes): about 100 nM | EC50 (P2X7): > 100 µM | hydrogel-embedded ATP released ([9]; after 48 hours): approx. 75% | further hydrogel-embedded ATP released ([9]; another, within the next 20 hours): 10% | hydrogel-embedded ATP released ([9]; within the first 5 hours (initial burst)): approx. 50%

CC/C=C\C[C@@H](O)/C=C/C=C\C=C\C=C\[C@@H](O)[C@@H](O)C/C=C\CCC(=O)O [17(R)-Resolvin D1]
maximal inhibition of leukocyte infiltration (leukocyte infiltration): ~35% | EC50 [10]: ~0.03 µM

O=C([O-])c1ccccc1O.[Na+] [sodium salicylate]
concentration inhibiting TNFR1-mediated activation of NF-κB [11]: 10 to 20 mM

9-biphenylacetyl-N-glycolylneuraminic acid-α2-6-galactose-β1-4-N-acetylglucosamine-β-ethylamine [6′-^BPANeuGc]
affinity for murine CD22, fold higher than natural ligand NeuGcα2-6Galβ1-4GlcNAc-β-ethylamine (murine CD22): 200 fold

C[C@]12CCC(=O)C=C1CC[C@@H]1[C@@H]2C(=O)C[C@@]2(C)[C@H]1CC[C@]2(O)C(=O)CO [cortisone]
glucocorticoid potency (in words) [3]: rather low potency

C[C@@H]1C[C@H]2[C@@H]3CCC4=CC(=O)C=C[C@]4(C)[C@@]3(F)[C@@H](O)C[C@]2(C)[C@@]1(O)C(=O)CO [dexamethasone]
plasma concentration of Dex ([12]; after 6 weeks (day 42)): 1 nM | plasma concentration of Dex ([12]; around day 7 after i.v. 200 mg/day on three alternating days): 100 to 1000 nM

C[C@]12CCC(=O)C=C1CC[C@@H]1[C@@H]2[C@@H](O)C[C@@]2(C)[C@H]1CC[C@]2(O)C(=O)CO [hydrocortisone]
glucocorticoid potency (in words) [3]: rather low potency

C=C1/C(=C\C=C2/CCC[C@]3(C)[C@@H]([C@H](C)CCCC(C)C)CC[C@@H]23)C[C@@H](O)C[C@@H]1O [alfacalcidiol]
patients with improvement of disease activity (rheumatoid arthritis; on methotrexate): 89% | patients going into remission (rheumatoid arthritis): 45%

C[C@]12C=CC(=O)C=C1CC[C@@H]1[C@@H]2[C@@H](O)C[C@@]2(C)[C@H]1CC[C@]2(O)C(=O)CO [prednisolone]
glucocorticoid potency (in words) [3]: intermediate potency

— patent US20160338955A1, “ANTIGEN-SPECIFIC IMMUNOTHERAPY USING TOLERIZING LIPOSOMES” (PLS-Design GmbH, priority 2015, published 2016)
